# PMC10672842, “Anti-Trypanosoma cruzi Activity, Mutagenicity, Hepatocytotoxicity and Nitroreductase Enzyme Evaluation of 3-Nitrotriazole, 2-Nitroimidazole and Triazole Derivatives” (Molecules, 2023)
# Where two headings read alike, the source gives them in different places.
# Legend:
# [1] = In vitro cytotoxicity of L929 cells (AlamarBlue); assay type: cell-based, mice; conditions: mouse, four days
# Protocol: For this bioassay, 4000 mammalian cells in 200 µL of RPMI-1640 medium (pH 7.2–7.4) (Gibco BRL) plus 10% fetal bovine serum and 2 mM glutamine were added to each well of a 96-well microtiter plate, which was incubated for three days at 37 °C. […] After this period, 20 µL of AlamarBlue^TM was added to each well, and the plate was incubated for another 4–6 h. Then, the absorbance was measured at 570 nm. Controls with cells not treated and treated with benznidazole were performed in parallel, and triplicates were performed on the same plate. The results are expressed as the percent difference in the reduction between treated (CT) and untreated cells (UT) using the following equation:(1) 117.216Abs570 TC−80.586(Abs600 TC)/117.216Abs570 UT−80.586(Abs600 UT) × 100
# [2] = in vitro; assay type: cell-based; conditions: human
# Protocol: (§1) The Lactate Desidrogenase (LDH) Cytotoxicity Detection Kit^PLUS and the Cell Proliferation Reagent WST-1 assays were performed according to the manufacturer’s protocols. The human hepatocellular carcinoma cell line HepG2 was cultured in T25/175 cm^2 flasks with Dulbecco’s modified Eagle’s medium (DMEM, Gibco BRL) supplemented with 10% fetal bovine serum, 3.7 g/L sodium bicarbonate and 100 µg/mL penicillin–streptomycin under standard conditions (37 ± 1 °C, 95% relative humidity and 5% CO2). Cells were split using trypsin-EDTA (0.05%) with phenol red solution (Gibco BRL) and seeded in a 96-well flat-bottomed plate at a density of 1 × 10^4 cells/well. After overnight incubation, the cells were washed with 1X PBS, and the medium was replaced with different compound dilutions (0–5000 µM) in fresh medium (100 µL) followed by 24 h of incubation. DMSO 1% was used as the negative control, and Triton X-100 4% was used as the positive control. For the LDH assay, after treatment, 50 µL of supernatant from each well was transferred to a 96-well flat-bottomed plate, and 50 µL of freshly prepared reaction mixture was added to each well. After 10 min of incubation in the dark at room temperature, 25 µL of stop solution was added to each well, and the absorbance was measured at 492 nm on a microplate reader (Polaris, Celer, MG, Brazil). For the WST-1 assay, after exposure, the supernatant was replaced by 100 µL of WST-1 2% in fresh medium and incubated for 3 h in the dark under standard conditions. The absorbance was measured at 440 nm. […] For cytotoxicity assays, significant differences between the groups were analyzed by one-way ANOVA and Tukey’s post hoc tests (p < 0.01).
# [3] = in vitro; assay type: cell-based; conditions: human; remark: listed apart in the source
# Protocol: as §1
# [4] = system: T. cruzi (Tulahuen strain); test: In vitro anti-T. cruzi evaluation in an intracellular model (trypomastigote and amastigote forms, L929 host cells, β-galactosidase readout); assay type: cell-based, Trypanosoma cruzi; conditions: for IC50: Trypanosoma cruzi, TULAHUEN, L929, 96 h, read-out: IC50 T. cruzi; for SI: selectivity index, L929 cells vs T. cruzi
# Protocol: Derivatives 5–10 were evaluated in vitro against T. cruzi in an intracellular model on the trypomastigote and amastigote forms of the parasite of the Tulahuen strain [20]. This model is interesting because it mimics the life cycle of the parasite, as both clinically relevant forms are present in the environment. The mammalian host cells used were fibroblasts from L929 mice.
# This assay was performed as previously described by Buckner et al. (1996) using T. cruzi (Tulahuen strain), which expresses the β-galactosidase gene of Escherichia coli. Infectious trypomastigote forms were obtained by culturing fibroblast monolayers of L929 mice in RPMI-1640 medium (pH 7.2–7.4) without phenol red (Gibco BRL), containing 10% fetal bovine serum and 2 mM glutamine. For the bioassay, 4000 L929 cells in 80 µL of supplemented medium were added to each well of a 96-well microtiter plate. After overnight incubation, 40,000 trypomastigotes in 20 µL were added to the cells and incubated for 2 h. […] The medium was then replaced with compound solutions at 1.0 µg/mL in fresh medium (200 µL), and the plate was incubated for 96 h at 37 °C. After this period, 50 µL of chlorophenol D-galactopyranoside red (500 µM) in 0.5% Nonidet P40 was added to each well, and the plate was incubated for 18 h at 37 °C. After this, the absorbance was measured at 570 nm. Controls with uninfected cells and infected cells treated with benznidazole were performed in parallel. The results are expressed as the percentage of T. cruzi growth inhibition in cells tested with compost compared to infected and untreated cells. The tests were performed in triplicate.
# [5] = Tulahuen strain, intracellular trypomastigote and amastigote forms in L929 fibroblasts, 96 h
structure (smiles),measurement,setting,value
"O=C(Cn1ccnc1[N+](=O)[O-])NCc1ccccc1 [BZN, benznidazole, reference compound]",CC50 at 4 days,[1],2110 ± 270 µM
same,CC50 at 24 h,[2],> 500 µM
same,CC50 at 48 h,[2],> 500 µM
same,CC50 at 72 h,[2],> 500 µM
same,CC50 at 24 h,[3],> 500 µM
same,CC50 at 48 h,[3],> 500 µM
same,CC50 at 72 h,[3],> 500 µM
same,IC50,[4],1.5 ± 0.4 µM
same,SI,[4],1409
"O=[N+]([O-])c1ncn(CC(O)c2ccc(F)cc2F)n1 (stereo not shown) [Compound 8, 1-(2,4-Difluorophenyl)-2-(3-nitro-1H-1,2,4-triazol-1-yl)ethanol]",CC50 at 4 days,[1],1200 ± 0.01 µM
same,CC50 at 24 h,[2],> 500 µM
same,CC50 at 48 h,[2],> 500 µM
same,CC50 at 24 h,[3],> 500 µM
same,CC50 at 48 h,[3],426 ± 66 µM
same,IC50,[4]; [5],0.39 ± 0.01 µM
same,times more potent against T. cruzi than 9,[4]; ratio of IC50 T. cruzi to 2-nitroimidazole 9,approximately 8
same,fold more potent against T. cruzi than BZN,[4]; ratio of IC50 T. cruzi to BZN,~4
same,times more potent against T. cruzi than 5,[4]; ratio of IC50 T. cruzi to carbonyl counterpart 5,more than 4
same,times more potent against T. cruzi than 10,[4]; ratio of IC50 T. cruzi to triazole 10,more than 300
same,fold more selective than BZN,[4]; ratio of selectivity index to BZN,2
same,SI,[4],3077
"O=[N+]([O-])c1nccn1CC(O)c1ccc(F)cc1F (stereo not shown) [Compound 9, 1-(2,4-Difluorophenyl)-2-(2-nitro-1H-imidazol-1-yl)ethanol]",CC50 at 4 days,[1],> 400 µM
same,CC50 at 24 h,[2],> 500 µM
same,CC50 at 48 h,[2],> 500 µM
same,CC50 at 72 h,[2],> 500 µM
same,CC50 at 24 h,[3],> 500 µM
same,CC50 at 48 h,[3],> 500 µM
same,CC50 at 72 h,[3],> 500 µM
same,IC50,[4]; [5],3.05 ± 0.07 µM
same,times more potent against T. cruzi than 6,[4]; ratio of IC50 T. cruzi to 2-nitroimidazole ketone 6,approximately 30
same,SI,[4],>131
